In publication PMC12133000 (PLOS One, 2025):

Test system: rat liver microsomes (RLMs)
Assay: Michaelis-Menten kinetics (Km) of rivaroxaban in RLMs
Type: in vitro ADME
Settings: read-out: Km of rivaroxaban
Procedure: Three samples from each group were incubated, centrifuged, and separated as described earlier. The LC–MS/MS method was used to detect rivaroxaban metabolites. Km was calculated by applying the Michaelis–Menten equation using Prism v. 9.0 (GraphPad Software, MA, USA).

Km: 17.6 µM
SMILES: O=C(NC[C@H]1CN(c2ccc(N3CCOCC3=O)cc2)C(=O)O1)c1ccc(Cl)s1 [rivaroxaban, Rivaroxaban]
